Results taken from patent US9499550B2 (BRISTOL-MYERS SQUIBB COMPANY, priority 2012, dated 2016).

What was measured:
[1] = test system: HCV genotype 1a (H77 strain) replicon in HUH-7 cells; assay: HCV replicon luciferase reporter assay, genotype 1a; assay type: cell-based; details: Hepatitis C virus, Huh-7, 72 h, HCV genotype 1a replicon luciferase, 3 days incubation, read-out: LE_1a (EC50, range)
Procedure, shortened: (§1)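 Replicon inhibition for both genotypes was measured as Renilla luciferase signal (EnduRen, 7.5 μM final, 2 h) after 3-day, 37° C exposure of replicon-bearing HUH-7 cells in 4% FCS DMEM, 0.5% DMSO. The 1b construct carries S1179I; the 1a H77 construct carries P1496L and S2204I. Twenty-point, 3-fold dilutions were fitted four-parametrically for EC50, and CC50 was taken from multiplexed Cell Titer-Blue.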

[2] = test system: HCV genotype 1b (Con1) replicon in HUH-7 cells; assay: HCV replicon luciferase reporter assay, genotype 1b; assay type: cell-based; details: Hepatitis C virus, Huh-7, 72 h, HCV genotype 1b replicon luciferase, 3 days incubation, read-out: LE_1b (EC50, range)
Procedure, shortened: as §1

SMILES | EC50 [1] | EC50 [2]
COc1ccc2c(O[C@@H]3C[C@H]4C(=O)N[C@]5(C(=O)NS(=O)(=O)C6CC6)C[C@H]5/C=C\CC[C@H](C)C[C@@H](C)[C@H](NC(=O)OC(C)(C)C(F)(F)F)C(=O)N4C3)nc(-c3ccc(N4CCOCC4)cc3)cc2c1 [Compound 5196, 1,1,1-trifluoro-2-methylpropan-2-yl((2R,6S,7R,9S,13aS,14aR,16aS,Z)-14a-((cyclopropylsulfonyl)carbamoyl)-2-((6-methoxy-3-(4-morpholinophenyl)isoquinolin-1-yl)oxy)-7,9-dimethyl-5,16-dioxo-1,2,3,5,6,7,8,9,10,11,13a,14,14a,15,16,16a-hexadecahydrocyclopropa[e]pyrrolo[1,2-a][1,4]diazacyclopentadecin-6-yl)carbamate] | < 5.46 nM | < 5.46 nM
COc1ccc2c(O[C@@H]3C[C@H]4C(=O)N[C@]5(C(=O)NS(=O)(=O)C6CC6)C[C@H]5/C=C\CC[C@@H](C)C[C@@H](C)[C@H](NC(=O)OC(C)(C)C(F)(F)F)C(=O)N4C3)nc(-c3ccc(N4CCOCC4)cc3)cc2c1 [Compound 5197, 1,1,1-trifluoro-2-methylpropan-2-yl((2R,6S,7R,9R,13aS,14aR,16aS,Z)-14a-((cyclopropylsulfonyl)carbamoyl)-2-((6-methoxy-3-(4-morpholinophenyl)isoquinolin-1-yl)oxy)-7,9-dimethyl-5,16-dioxo-1,2,3,5,6,7,8,9,10,11,13a,14,14a,15,16,16a-hexadecahydrocyclopropa[e]pyrrolo[1,2-a][1,4]diazacyclopentadecin-6-yl)carbamate] | < 5.46 nM | < 5.46 nM
COc1ccc2c(O[C@@H]3C[C@H]4C(=O)N[C@]5(C(=O)NS(=O)(=O)C6(C)CC6)C[C@H]5/C=C\CC[C@H](C)C[C@@H](C)[C@H](NC(=O)OC(C)(C)C(F)(F)F)C(=O)N4C3)nc(-c3ccc(N4CCOCC4)cc3)cc2c1 [Compound 5198, 1,1,1-trifluoro-2-methylpropan-2-yl((2R,6S,7R,9S,13aS,14aR,16aS,Z)-2-((6-methoxy-3-(4-morpholinophenyl)isoquinolin-1-yl)oxy)-7,9-dimethyl-14a-(((1-methylcyclopropyl)sulfonyl)carbamoyl)-5,16-dioxo-1,2,3,5,6,7,8,9,10,11,13a,14,14a,15,16,16a-hexadecahydrocyclopropa[e]pyrrolo[1,2-a][1,4]diazacyclopentadecin-6-yl)carbamate] | 4.82 to 103 nM | < 5.46 nM
COc1ccc2c(O[C@@H]3C[C@H]4C(=O)N[C@]5(C(=O)NS(=O)(=O)C6(C)CC6)C[C@H]5/C=C\CC[C@@H](C)C[C@@H](C)[C@H](NC(=O)OC(C)(C)C(F)(F)F)C(=O)N4C3)nc(-c3ccc(N4CCOCC4)cc3)cc2c1 [Compound 5199, 1,1,1-trifluoro-2-methylpropan-2-yl((2R,6S,7R,9R,13aS,14aR,16aS,Z)-2-((6-methoxy-3-(4-morpholinophenyl)isoquinolin-1-yl)oxy)-7,9-dimethyl-14a-(((1-methylcyclopropyl)sulfonyl)carbamoyl)-5,16-dioxo-1,2,3,5,6,7,8,9,10,11,13a,14,14a,15,16,16a-hexadecahydrocyclopropa[e]pyrrolo[1,2-a][1,4]diazacyclopentadecin-6-yl)carbamate] | < 5.46 nM | < 5.46 nM
COc1ccc2c(O[C@@H]3C[C@H]4C(=O)N[C@]5(C(=O)NS(=O)(=O)C6CC6)C[C@H]5/C=C\CC[C@H](C)C[C@@H](C)[C@H](NC(=O)OC(C)(C)C)C(=O)N4C3)nc(-c3ccc(OC(C)C)cn3)cc2c1 [Compound 5200, tert-butyl ((2R,6S,7R,9S,13aS,14aR,16aS,Z)-14a-((cyclopropylsulfonyl)carbamoyl)-2-((3-(5-isopropoxypyridin-2-yl)-6-methoxyisoquinolin-1-yl)oxy)-7,9-dimethyl-5,16-dioxo-1,2,3,5,6,7,8,9,10,11,13a,14,14a,15,16,16a-hexadecahydrocyclopropa[e]pyrrolo[1,2-a][1,4]diazacyclopentadecin-6-yl)carbamate] | < 5.46 nM | < 5.46 nM
COc1ccc2c(O[C@@H]3C[C@H]4C(=O)N[C@]5(C(=O)NS(=O)(=O)C6CC6)C[C@H]5/C=C\CC[C@@H](C)C[C@@H](C)[C@H](NC(=O)OC(C)(C)C)C(=O)N4C3)nc(-c3ccc(OC(C)C)cn3)cc2c1 [Compound 5201, tert-butyl ((2R,6S,7R,9R,13aS,14aR,16aS,Z)-14a-((cyclopropylsulfonyl)carbamoyl)-2-((3-(5-isopropoxypyridin-2-yl)-6-methoxyisoquinolin-1-yl)oxy)-7,9-dimethyl-5,16-dioxo-1,2,3,5,6,7,8,9,10,11,13a,14,14a,15,16,16a-hexadecahydrocyclopropa[e]pyrrolo[1,2-a][1,4]diazacyclopentadecin-6-yl)carbamate] | < 5.46 nM | < 5.46 nM
COc1ccc2c(O[C@@H]3C[C@H]4C(=O)N[C@]5(C(=O)NS(=O)(=O)C6CC6)C[C@H]5/C=C\CC[C@H](C)C[C@@H](C)[C@H](NC(=O)OC(C)(C)C(F)(F)F)C(=O)N4C3)nc(-c3ccc(OC(C)C)cn3)cc2c1 [Compound 5202, 1,1,1-trifluoro-2-methylpropan-2-yl((2R,6S,7R,9S,13aS,14aR,16aS,Z)-14a-((cyclopropylsulfonyl)carbamoyl)-2-((3-(5-isopropoxypyridin-2-yl)-6-methoxyisoquinolin-1-yl)oxy)-7,9-dimethyl-5,16-dioxo-1,2,3,5,6,7,8,9,10,11,13a,14,14a,15,16,16a-hexadecahydrocyclopropa[e]pyrrolo[1,2-a][1,4]diazacyclopentadecin-6-yl)carbamate] | < 5.46 nM | < 5.46 nM
COc1ccc2c(O[C@@H]3C[C@H]4C(=O)N[C@]5(C(=O)NS(=O)(=O)C6CC6)C[C@H]5/C=C\CC[C@@H](C)C[C@@H](C)[C@H](NC(=O)OC(C)(C)C(F)(F)F)C(=O)N4C3)nc(-c3ccc(OC(C)C)cn3)cc2c1 [Compound 5203, 1,1,1-trifluoro-2-methylpropan-2-yl((2R,6S,7R,9R,13aS,14aR,16aS,Z)-14a-((cyclopropylsulfonyl)carbamoyl)-2-((3-(5-isopropoxypyridin-2-yl)-6-methoxyisoquinolin-1-yl)oxy)-7,9-dimethyl-5,16-dioxo-1,2,3,5,6,7,8,9,10,11,13a,14,14a,15,16,16a-hexadecahydrocyclopropa[e]pyrrolo[1,2-a][1,4]diazacyclopentadecin-6-yl)carbamate] | < 5.46 nM | < 5.46 nM
[2H]C([2H])([2H])C(OC(=O)N[C@@H]1C(=O)N2C[C@H](Oc3nc(-c4ccc(OC(C)C)cn4)cc4cc(OC)ccc34)C[C@H]2C(=O)N[C@]2(C(=O)NS(=O)(=O)C3CC3)C[C@H]2/C=C\CC[C@H](C)C[C@H]1C)(C([2H])([2H])[2H])C(F)(F)F [Compound 5204, 1,1,1,3,3,3-hexadeutero-2-(trifluoromethyl)propan-2-yl((2R,6S,7R,9S,13aS,14aR,16aS,Z)-14a-((cyclopropylsulfonyl)carbamoyl)-2-((3-(5-isopropoxypyridin-2-yl)-6-methoxyisoquinolin-1-yl)oxy)-7,9-dimethyl-5,16-dioxo-1,2,3,5,6,7,8,9,10,11,13a,14,14a,15,16,16a-hexadecahydrocyclopropa[e]pyrrolo[1,2-a][1,4]diazacyclopentadecin-6-yl)carbamate] | < 5.46 nM | < 5.46 nM
[2H]C([2H])([2H])C(OC(=O)N[C@@H]1C(=O)N2C[C@H](Oc3nc(-c4ccc(OC(C)C)cn4)cc4cc(OC)ccc34)C[C@H]2C(=O)N[C@]2(C(=O)NS(=O)(=O)C3CC3)C[C@H]2/C=C\CC[C@@H](C)C[C@H]1C)(C([2H])([2H])[2H])C(F)(F)F [Compound 5205, 1,1,1,3,3,3-hexadeutero-2-(trifluoromethyl)propan-2-yl((2R,6S,7R,9R,13aS,14aR,16aS,Z)-14a-((cyclopropylsulfonyl)carbamoyl)-2-((3-(5-isopropoxypyridin-2-yl)-6-methoxyisoquinolin-1-yl)oxy)-7,9-dimethyl-5,16-dioxo-1,2,3,5,6,7,8,9,10,11,13a,14,14a,15,16,16a-hexadecahydrocyclopropa[e]pyrrolo[1,2-a][1,4]diazacyclopentadecin-6-yl)carbamate] | < 5.46 nM | < 5.46 nM
COc1ccc2c(O[C@@H]3C[C@H]4C(=O)N[C@]5(C(=O)NS(=O)(=O)C6CC6)C[C@H]5/C=C\CC[C@H](C)C[C@@H](C)[C@H](NC(=O)O[C@H](C)C(F)(F)F)C(=O)N4C3)nc(-c3ccc(OC(C)C)cn3)cc2c1 [Compound 5206, (R)-1,1,1-trifluoropropan-2-yl ((2R,6S,7R,9S,13aS,14aR,16aS,Z)-14a-((cyclopropylsulfonyl)carbamoyl)-2-((3-(5-isopropoxypyridin-2-yl)-6-methoxyisoquinolin-1-yl)oxy)-7,9-dimethyl-5,16-dioxo-1,2,3,5,6,7,8,9,10,11,13a,14,14a,15,16,16a-hexadecahydrocyclopropa[e]pyrrolo[1,2-a][1,4]diazacyclopentadecin-6-yl)carbamate] | < 5.46 nM | < 5.46 nM
COc1ccc2c(O[C@@H]3C[C@H]4C(=O)N[C@]5(C(=O)NS(=O)(=O)C6CC6)C[C@H]5/C=C\CC[C@@H](C)C[C@@H](C)[C@H](NC(=O)O[C@H](C)C(F)(F)F)C(=O)N4C3)nc(-c3ccc(OC(C)C)cn3)cc2c1 [Compound 5207, (R)-1,1,1-trifluoropropan-2-yl ((2R,6S,7R,9R,13aS,14aR,16aS,Z)-14a-((cyclopropylsulfonyl)carbamoyl)-2-((3-(5-isopropoxypyridin-2-yl)-6-methoxyisoquinolin-1-yl)oxy)-7,9-dimethyl-5,16-dioxo-1,2,3,5,6,7,8,9,10,11,13a,14,14a,15,16,16a-hexadecahydrocyclopropa[e]pyrrolo[1,2-a][1,4]diazacyclopentadecin-6-yl)carbamate] | < 5.46 nM | < 5.46 nM
